These results are taken from US20170371042A1, “CONTRAST AGENT FOR OPTICAL IMAGING, USE THEREOF AND APPARATUS USING THE SAME” (KYUNGPOOK NATIONAL UNIVERSITY INDUSTRY- ACADEMIC …, priority 2009, published 2017).

The conditions of data set [1]: cited from earlier work; for Ece mean: conversion electron; for Decay mode EC (%): electron capture.
For data set [2] the following is noted: normal mouse (C3H/HeN), 500 μCi intraperitoneally, 40 minutes post-injection.
Procedure: 500 mCi of ^124I was injected intraperitoneally into a normal mouse (C3H/HeN, Orient Bio Inc., Korea). 40 minutes after the injection, a luminescence image was obtained by scanning the mouse for 1 minute in the lying position.
A short description of data set [3]: Luminescence imaging using [^18F]FDG. It counts as in vivo. The following applies: BALB/c mouse bearing luciferase-transfected 4T1 tumour cells, 1 hour after injecting 409 μCi via tail vein, no luciferin. The protocol:
A BALB/c mouse with a luciferase-transfected 4T1 tumor was injected with […] of [^18F]FDG via the tail vein. One hour after the injection, the mouse was scanned for 3 minutes in the prone position using IVIS 200. […] The brain (red arrow) and the brown fat (white arrow) are clearly visualized.

As to [^99mTc]TcO4^−, in data set [1], the half-life result is recorded as “(6.0 h)” and the Ece mean is reported as 14 keV. The “Decay mode IT (%)” value in data set [1] (isomeric transition) was “(100) %”.
Regarding `[Cl][111In]([Cl])[Cl]` [^111In, [^111In]InCl3], in data set [1], the half-life entry is listed as “(2.8 d)”, the Ece mean is on record as 176 keV and the “Decay mode EC (%)” value is on record as “(100) %”.
Take `[124I-].[Na+]` [^124I, [^124I]NaI]: in data set [1], the half-life result was “(4.2 d)” and the “Decay mode EC (%)” value is “(77) %”. Besides, in data set [2], the “uptake seen in luminescence image” value is “high uptake in the thyroid and bladder region”.
With `[68Ga+3].[Cl-].[Cl-].[Cl-]` [^68Ga, [^68Ga]GaCl3], in data set [1], the half-life entry is listed as “(68 min)” and the “Decay mode EC (%)” value is “(11) %”.
Consider `[64Cu+2].[Cl-].[Cl-]` [^64Cu, [^64Cu]CuCl2], for which the half-life result in data set [1] is listed as “(12.7 h)”.
As for `[131I-].[Na+]` [^131I, [^131I]NaI], in data set [1], the half-life entry is “(8.0 d)”.
In the case of `OC[C@H]1OC(O)[C@H]([18F])[C@@H](O)[C@@H]1O` (stereo partly shown) [^18F, [^18F]FDG], in data set [1], the half-life result is “(110 min)” and the “Decay mode EC (%)” value is “(3) %”. Further, the “luminescence signal in mouse image” value in data set [3] was “intense signal was detected in the brain and brown fat area on the shoulder”.
